From PMC7918798, “Coumarins from Seseli devenyense Simonk.: Isolation by Liquid–Liquid Chromatography and Potential Anxiolytic Activity Using an In Vivo Zebrafish Larvae Model” (International Journal of Molecular Sciences, 2021)
Values belong to the compound of their own block, whether it stands above or below them.

What was measured:
GABAA receptor = conditions: cited from earlier work; for influence on GABAA receptor: compared with phellopterin
GABA/BDZ receptor = tested on: GABA/BDZ receptor; design: method as in PMID 8971802; conditions: cited from earlier work
animal model = conditions: cited from earlier work; for anxiolytic activity (percentage of time and number of arms entries in the open arm): elevated plus maze
5-dpf zebrafish larvae [1] = assay: Zebrafish larvae 40 min continuous illumination: spontaneous locomotor activity and thigmotaxis (Phase 1); type: in vivo, Danio rerio; conditions: for spontaneous locomotor activity (average distance moved): 40 min continuous illumination
Procedure: (§1) The research protocol was adopted after Schnorr et al. (2012). The anxiolytic activity was evaluated in 24-well plates. The inner and outer zones of the well were delineated according to Schnorr et al. (2012). […] It could be also described as decreasing thigmotaxis. 1% DMSO in E3 solution was used as the negative control, 10 μM diazepam was used as the positive control. 32 larvae were used for each concentration.
(§2) The experimental procedure was divided into three stages: • (a) Preincubation: larvae were pre-incubated in a 1500 μL solution of tested compounds in individual wells of a 24-well plate at 28.5 °C, in dark, for 30 min. • (b) Acclimatization (min 0–10): plates were placed in an automated video recording bench station (ViewPoint, Lyon, France). Larvae were allowed to acclimatize to the test apparatus for 10 min. During this period, lights were kept on. • (c) Visual motor challenge (min 11–95): this stage experiment was divided into two phases: Phase 1—continuous illumination: larvae were subjected to continuous light for 40 min, with the purpose to determine the spontaneous locomotor activity and thigmotaxis behavior (before applying the factor causing the anxiety). Phase 2—light/dark transition: larvae were subjected to three cycles, each involving the 10-min lighting phase (continuous light) and the 5-min dark phase (anxiogenic factor).

5-dpf zebrafish larvae [2] = assay: Zebrafish larvae light/dark transition challenge: locomotor activity and thigmotaxis (anxiolytic activity assay, Phase 2); type: in vivo, Danio rerio; conditions: for distance moved by the larvae in the central arena / time spent in the central area: dark phase vs light phase, concentration not stated; for anxiolytic activity (authors' overall statement): zebrafish larvae model
Procedure: as §1, §2

[3] = Shake-flask partition coefficient in HEMWat biphasic solvent systems; type: physicochemical
Procedure: The screening for suitable biphasic solvent systems to isolate the target coumarins from Seseli devenyense methanolic fruit extract (SDMFE) was performed by shake-flask experiments. The partition coefficient (Pi), defined as the ratio of the concentration of a solute in the stationary phase to its concentration in the mobile phase, was used as the screening parameter. The experimental protocol was previously descried by Widelski et al. (2018). Briefly, 1 mg of crude extract was dissolved in 4 mL of biphasic solvent systems obtained by mixing various volumes of hexane, ethyl acetate, methanol and water (HEMWat). After vigorous shaking, the flasks were left until the complete separation of the layers. Then, equal volumes of the upper and lower phase (0.5 mL) were taken, evaporated to dryness, dissolved again in methanol (1.0 mL) and analyzed by HPLC-DAD analysis, as descried below.
The preliminary analysis of the SDMFE, determination of the partition coefficient values and purity of collected fractions were assessed by HPLC-DAD. The HPLC-DAD analyses were performed on a Shimadzu HPLC (Shimadzu, Tokyo, Japan) equipped with automatic degasser (DGU-20A3R), quaternary pump (LC-20AD), auto-sampler (SIL-20AHT) and diode array detector (SPD-M20A). The separations were carried out on an Agilent Zorbax Eclipse XDB-C18 (Agilent, Santa Clara, CA, USA) (250 mm × 4.6 mm, 5 μm) column with a mobile phase consisting of water (solvent A) and methanol (solvent B). The following gradient was applied: 0 min: 50% B; 5 min: 60% B; 25 min: 80% B; 30–35 min: 100% B. The flow-rate was 1 mL/min; the column temperature was set at 25 °C. The injection volume of sample was 10 μL and detection was carried out at 320 nm.

mice = conditions: 5 mg/kg; cited from earlier work
[4] = design: method as in PMID 23803166; conditions: cited from earlier work
zebrafish = tested on: zebrafish; design: method as in PMID 33049351; conditions: zebrafish model; cited from earlier work
murine model = tested on: murine model; design: method as in PMID 33049351; conditions: cited from earlier work
[5] = 40 min continuous illumination vs DMSO-treated group, 12.5 µM
[6] = dark phase vs DMSO-treated group in dark phase, 12.5 μM
[7] = dark phase vs DMSO-treated group in dark phase, 25 μM
[8] = dark phase vs DMSO-treated group in dark phase, 50 μM
[9] = dark phase vs light phase within same group, 12.5 μM
[10] = dark phase vs light phase within same group, 25 μM
[11] = light phase vs DMSO-treated group in light phase, 12.5 μM
[12] = light phase vs DMSO-treated group in light phase, 50 μM
[13] = dark phase vs DMSO-treated group in dark phase, 9 μM
[14] = dark phase vs light phase within same group, 9 μM
[15] = dark phase vs light phase within same group, 15 μM
[16] = dark phase vs light phase within same group, 30 μM

Structure (SMILES): COc1c2ccoc2cc2oc(=O)ccc12 [bergapten]
influence on GABAA receptor (GABAA receptor): weaker influence

Structure (SMILES): COc1c2ccoc2c(OC[C@H]2OC2(C)C)c2oc(=O)ccc12 [byakangelicol]
mode of action at GABA/BDZ receptor (GABA/BDZ receptor): partial agonists

Structure (SMILES): COc1cc2cc(Oc3ccc4ccc(=O)oc4c3)c(=O)oc2cc1O [daphnoretin]
anxiolytic activity (animal model; rodent model of anxiety, tested on EPM): significant anxiolytic activity

Structure (SMILES): CC(C)=CCOc1c2occc2cc2ccc(=O)oc12 [imperatorin]
anxiolytic activity (percentage of time and number of arms entries in the open arm) (animal model): significant anxiolytic activity
influence on GABAA receptor (GABAA receptor): weaker influence

Structure (SMILES): CC(C)=CCOc1c2ccoc2cc2oc(=O)ccc12 [isoimperatorin]
anxiolytic activity (percentage of time and number of arms entries in the open arm) (animal model): significant anxiolytic activity

Partition Coefficients (Pi) ([3]; solvent system II, hexane/ethyl acetate/methanol/water 6/5/6/5 (v/v/v/v)): 1.01
Structure (SMILES): C/C=C(/C)C(=O)O[C@H]1[C@@H](O)c2c(ccc3ccc(=O)oc23)OC1(C)C [isolaserpitin]
percentage of distance moved in the central arena (5-dpf zebrafish larvae [1]; [5]): increased
percentage of time spent in the central arena (5-dpf zebrafish larvae [1]; [5]): increase
percentage of distance moved in the central arena (5-dpf zebrafish larvae [1]; 40 min continuous illumination vs DMSO-treated group, 50 µM): increased
spontaneous locomotor activity (average distance moved) (5-dpf zebrafish larvae [1]; all concentrations (12.5, 25, 50 µM)): has not influenced
locomotor activity (average distance moved per 1-min time bin) (5-dpf zebrafish larvae [2]; [6]): significant increases
percentage of distance moved in central area (5-dpf zebrafish larvae [2]; [6]): significant increases
percentage of time spent in central area (5-dpf zebrafish larvae [2]; [6]): significant increases
locomotor activity (average distance moved per 1-min time bin) (5-dpf zebrafish larvae [2]; [7]): significant increases
percentage of distance moved in central area (5-dpf zebrafish larvae [2]; [7]): significant increases
percentage of time spent in central area (5-dpf zebrafish larvae [2]; [7]): significant increases
locomotor activity (average distance moved per 1-min time bin) (5-dpf zebrafish larvae [2]; [8]): significant increases
percentage of distance moved in central area (5-dpf zebrafish larvae [2]; [8]): significant increases
percentage of time spent in central area (5-dpf zebrafish larvae [2]; [8]): significant increases
percentage of distance moved in central area (5-dpf zebrafish larvae [2]; [9]): increase
percentage of time spent in central area (5-dpf zebrafish larvae [2]; [9]): increase
percentage of distance moved in central area (5-dpf zebrafish larvae [2]; [10]): increase
percentage of time spent in central area (5-dpf zebrafish larvae [2]; [10]): increase
percentage of distance moved in central area (5-dpf zebrafish larvae [2]; dark phase vs light phase within same group, 50 μM): increase
distance moved by the larvae in the central arena (5-dpf zebrafish larvae [2]): significantly increased
time spent in the central area (5-dpf zebrafish larvae [2]): significantly increased
locomotor activity (average distance moved per 1-min time bin) (5-dpf zebrafish larvae [2]; [11]): significant increase
percentage of distance moved in central area (5-dpf zebrafish larvae [2]; [11]): significant increase
percentage of time spent in central area (5-dpf zebrafish larvae [2]; [11]): significant increase
locomotor activity (average distance moved per 1-min time bin) (5-dpf zebrafish larvae [2]; light phase vs DMSO-treated group in light phase, 25 μM): significant increase
locomotor activity (average distance moved per 1-min time bin) (5-dpf zebrafish larvae [2]; [12]): significant increase
percentage of distance moved in central area (5-dpf zebrafish larvae [2]; [12]): significant increase
percentage of time spent in central area (5-dpf zebrafish larvae [2]; [12]): significant increase
anxiolytic activity (authors' overall statement) (5-dpf zebrafish larvae [2]): higher

Partition Coefficients (Pi) ([3]; solvent system III, hexane/ethyl acetate/methanol/water 5/2/5/2 (v/v/v/v)): 2.01
Structure (SMILES): CCCCCCCC(=O)O[C@H]1Cc2c(ccc3ccc(=O)oc23)OC1(C)C [octanoyllomatin]
spontaneous locomotor activity (average distance moved) (5-dpf zebrafish larvae [1]; all concentrations (9, 15, 30 µM)): has not influenced
percentage of distance moved in central area (5-dpf zebrafish larvae [2]; [13]): significant increases
percentage of time spent in central area (5-dpf zebrafish larvae [2]; [13]): significant increases
percentage of time spent in central area (5-dpf zebrafish larvae [2]; dark phase vs DMSO-treated group in dark phase, 15 μM): significant increases
locomotor activity (average distance moved per 1-min time bin) (5-dpf zebrafish larvae [2]; dark phase vs DMSO-treated group in dark phase, 30 μM): significant decreases
locomotor activity (average distance moved per 1-min time bin) (5-dpf zebrafish larvae [2]; [14]): increase
percentage of distance moved in central area (5-dpf zebrafish larvae [2]; [14]): increase
percentage of time spent in central area (5-dpf zebrafish larvae [2]; [14]): increase
locomotor activity (average distance moved per 1-min time bin) (5-dpf zebrafish larvae [2]; [15]): increase
percentage of distance moved in central area (5-dpf zebrafish larvae [2]; [15]): increase
percentage of time spent in central area (5-dpf zebrafish larvae [2]; [15]): increase
percentage of distance moved in central area (5-dpf zebrafish larvae [2]; [16]): increase
percentage of time spent in central area (5-dpf zebrafish larvae [2]; [16]): increase
distance moved by the larvae in the central arena (5-dpf zebrafish larvae [2]): significantly increased
time spent in the central area (5-dpf zebrafish larvae [2]): significantly increased
percentage of time spent in central area (5-dpf zebrafish larvae [2]; light phase vs DMSO-treated group in light phase, 30 μM): decrease
anxiolytic activity (authors' overall statement) (5-dpf zebrafish larvae [2]): highest anxiolytic activity

Structure (SMILES): CC(C)=CCCC(C)=CCc1cc2ccc(=O)oc2cc1O [ostruthin, 6-(3,7-dimethyl-2,6-octadienyl)-7-hydroxycoumarin]
anxiolytic effect (mice): anxiolytic effect

Structure (SMILES): COc1c2ccoc2c(OCC=C(C)C)c2oc(=O)ccc12 [phellopterin]
mode of action at GABA/BDZ receptor (GABA/BDZ receptor): partial agonists
IC50 (GABAA receptor): 360 nM

Structure (SMILES): O=c1ccc2cc3ccoc3cc2o1 [psolaren]
mode of action at GABA/BDZ receptor (GABA/BDZ receptor): partial agonists

Structure (SMILES): COc1cc2ccc(=O)oc2cc1O [scopoletin, 7-hydroxy-6-methoxycoumarin]
anxiolytic effects [4]: significant sustained anxiolytic effects

Structure (SMILES): O=c1ccc2ccc(O)cc2o1 [umbelliferone, 7-hydroxycoumarin]
anxiolytic effects [4]: significant sustained anxiolytic effects

Structure (SMILES): COc1c2occc2cc2ccc(=O)oc12 [xanthotoxin]
effect on anxiety behaviors (thigmotaxis) (zebrafish): reversed U-shape effect
effect on anxiety behaviors (thigmotaxis) (murine model): reversed U-shape effect
